Biological target: T1, recombinant human Aggrecanase-2 Agg2-Phe628 (Homo sapiens, UniProt Q9UNA0)
T1 sequence (Q9UNA0 262-628 limits assumed): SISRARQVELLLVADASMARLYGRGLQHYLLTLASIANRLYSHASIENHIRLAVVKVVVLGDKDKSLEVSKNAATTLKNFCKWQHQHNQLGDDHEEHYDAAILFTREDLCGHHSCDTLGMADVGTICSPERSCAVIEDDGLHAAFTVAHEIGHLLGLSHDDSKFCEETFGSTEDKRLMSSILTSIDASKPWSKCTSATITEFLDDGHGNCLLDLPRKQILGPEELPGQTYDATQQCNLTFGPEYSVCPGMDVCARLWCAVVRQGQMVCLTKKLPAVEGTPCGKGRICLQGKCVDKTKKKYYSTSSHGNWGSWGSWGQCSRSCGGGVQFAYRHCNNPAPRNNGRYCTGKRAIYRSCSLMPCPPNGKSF
Experiment: Aggrecanase 2 in vitro enzyme assay (Agg-2 FRET, quenched fluorescent peptide substrate)
Format: biochemical
Design: purified recombinant human Aggrecanase-2 Agg2-Phe628 (MW=41,737); This is a truncated form of full-length human aggrecanase-2; made in house; host or cells: CHO cells
Conditions: for IC50: read-out: Agg-2 FRET Median IC50; for Agg-2 FRET Median PCT INHIB: concentration not given
Experimental: A continuous assay was used in which the substrate was a synthetic peptide containing a fluorescent group (o-aminobenzyl, Abz), which was quenched by energy transfer to a 2,4-dinitrophenyl group (Dnp). The buffer used in this assay was 50 mM HEPES, pH 7.5, 100 mM NaCl, 5 mM CaCl2, 0.1% CHAPS, 5% glycerol. The source of enzyme was purified recombinant human Aggrecanase-2 Agg2-Phe628 (MW=41,737). This is a truncated form of full-length human aggrecanase-2 that was expressed in CHO cells and purified. The final concentration of Agg2-Phe628 was 0.5 μg/ml. […] It is a synthetic peptide that is designed after a portion of brevican, one of the naturally occurring substrates of Aggrecanase-2, of the sequence Abz-[…]-Dap(Dnp)-KK—NH2 (mass=1740). The concentration of this substrate stock was spectrophotometrically determined using the extinction coefficient at 354 nm of 18,172 M^−1cm^−1. […] The final concentration of substrate in the assay was 25 μM.
Test compounds (in duplicate) were serially diluted from 2 mM to 0.01 μM in 100% DMSO. The total reaction volume was 100 μl. The buffer and enzyme were added first followed by addition of 10× inhibitor from the dilution plate. Enzyme and buffer alone samples were included in order to obtain the maximal rate of substrate cleavage. […] Then substrate was added, mixed and the reaction monitored for 40 min at 30° C. in kinetic mode using λex: 340 nm and % λem: 420 (GeminiXS Molecular Devices).

IC50 | Agg-2 FRET Median PCT INHIB | Compound
2.33 µM |  | CC(=O)c1ccc(OCC(=O)NC(c2cccc([N+](=O)[O-])c2)c2cc(Cl)c3cccnc3c2O)cc1 (stereo not drawn) [2-(4-acetylphenoxy)-N-[(5-chloro-8-hydroxyquinolin-7-yl)(3-nitrophenyl)methyl]acetamide]
 | 43% | CC(C)(C)c1ccc(OCC(=O)NC(c2cccc(F)c2)c2cc(Cl)c3cccnc3c2O)cc1 (stereo not drawn) [2-(4-tert-butylphenoxy)-N-[(5-chloro-8-hydroxyquinolin-7-yl)(3-fluorophenyl)methyl]acetamide]
0.828 µM |  | O=C(COCc1ccccc1)NC(c1cccc(F)c1)c1cc(Cl)c2cccnc2c1O (stereo not drawn) [2-(benzyloxy)-N-[(5-chloro-8-hydroxyquinolin-7-yl)(3-fluorophenyl)methyl]acetamide]
16.9 µM |  | O=C(CNc1cccnc1)NC(c1ccccc1Cl)c1cc(Cl)c2cccnc2c1O (stereo not drawn) [Example 18, N^1-[(5-chloro-8-hydroxyquinolin-7-yl)(2-chlorophenyl)methyl]-N^2-pyridin-3-ylglycinamide]
1.48 µM |  | Cc1cc(NCC(=O)NC(c2ccccc2Cl)c2cc(Cl)c3cccnc3c2O)ccc1Cl (stereo not drawn) [Example 19, N^1-[(5-chloro-8-hydroxyquinolin-7-yl)(2-chlorophenyl)methyl]-N^2-(4-chloro-3-methylphenyl)glycinamide]
 | 54% | CC(C)(C)c1ccc(NCC(=O)NC(c2ccccc2Cl)c2cc(Cl)c3cccnc3c2O)cc1 (stereo not drawn) [Example 20, N^2-(4-tert-butylphenyl)-N^1-[(5-chloro-8-hydroxyquinolin-7-yl)(2-chlorophenyl)methyl]glycinamide]
9.79 µM |  | Cc1ccc(C(NC(=O)CNc2cccnc2)c2cc(Cl)c3cccnc3c2O)cc1 (stereo not drawn) [Example 22, N^1-[(5-chloro-8-hydroxyquinolin-7-yl)(4-methylphenyl)methyl]-N^2-pyridin-3-ylglycinamide]
1.12 µM |  | CC(=O)c1ccc(NCC(=O)NC(c2ccc(C)cc2)c2cc(Cl)c3cccnc3c2O)cc1 (stereo not drawn) [Example 24, N^2-(4-acetylphenyl)-N^1-[(5-chloro-8-hydroxyquinolin-7-yl)(4-methylphenyl)methyl]glycinamide]
 | 57% | Cc1ccc(C(NC(=O)CNc2ccc(C(C)(C)C)cc2)c2cc(Cl)c3cccnc3c2O)cc1 (stereo not drawn) [Example 27, N^2-(4-tert-butylphenyl)-N^1-[(5-chloro-8-hydroxyquinolin-7-yl)(4-methylphenyl)methyl]glycinamide]
1.56 µM |  | O=C(CNc1cccnc1)NC(c1cccc([N+](=O)[O-])c1)c1cc(Cl)c2cccnc2c1O (stereo not drawn) [Example 28, N^1-[(5-chloro-8-hydroxyquinolin-7-yl)(3-nitrophenyl)methyl]-N^2-pyridin-3-ylglycinamide]
2.77 µM |  | CC(=O)Nc1ccc(NCC(=O)NC(c2cccc([N+](=O)[O-])c2)c2cc(Cl)c3cccnc3c2O)cc1 (stereo not drawn) [Example 31, N^2-[4-(acetylamino)phenyl]-N^1-[(5-chloro-8-hydroxyquinolin-7-yl)(3-nitrophenyl)methyl]glycinamide]
15.1 µM |  | O=C(CNc1cccnc1)NC(c1cccc(F)c1)c1cc(Cl)c2cccnc2c1O (stereo not drawn) [Example 32, N^1-[(5-chloro-8-hydroxyquinolin-7-yl)(3-fluorophenyl)methyl]-N^2-pyridin-3-ylglycinamide]
1.49 µM |  | Cc1ccc(C)c(C(NC(=O)COc2ccccc2)c2cc(Cl)c3cccnc3c2O)c1 (stereo not drawn) [Example 37, N-[(5-chloro-8-hydroxyquinolin-7-yl)(2,5-dimethylphenyl)methyl]-2-phenoxyacetamide]
1.32 µM |  | Cc1cc(C(NC(=O)COc2ccccc2)c2cccc([N+](=O)[O-])c2)c(O)c2ncccc12 (stereo not drawn) [Example 46, N-[(8-hydroxy-5-methylquinolin-7-yl)(3-nitrophenyl)methyl]-2-phenoxyacetamide]
1.31 µM |  | CN(CC(=O)NC(c1ccccc1Cl)c1cc(Cl)c2cccnc2c1O)Cc1ccccc1 (stereo not drawn) [Example 52, N^2-benzyl-N^1-[(5-chloro-8-hydroxyquinolin-7-yl)(2-chlorophenyl)methyl]-N^2-methylglycinamide]
1.44 µM |  | CN(CC(=O)NC(c1cccc(F)c1)c1cc(Cl)c2cccnc2c1O)Cc1ccccc1 (stereo not drawn) [Example 55, N^2-benzyl-N^1-[(5-chloro-8-hydroxyquinolin-7-yl)(3-fluorophenyl)methyl]-N^2-methylglycinamide]
0.776 µM |  | Cc1ccc(C(NC(=O)CN(C)c2ccccc2)c2cc(Cl)c3cccnc3c2O)cc1 (stereo not drawn) [Example 58, N^1-[(5-chloro-8-hydroxyquinolin-7-yl)(4-methylphenyl)methyl]-N^2-methyl-N^2-phenylglycinamide]

IC50 | Agg-2 FRET Median PCT INHIB | Compound
1.28 µM |  | Cc1ccc(C(NC(=O)CN(C)Cc2ccccc2)c2cc(Cl)c3cccnc3c2O)cc1 (stereo not drawn) [Example 59, N^2-benzyl-N^1-[(5-chloro-8-hydroxyquinolin-7-yl)(4-methylphenyl)methyl]-N^2-methylglycinamide]
1.83 µM |  | Cc1ccc(C(NC(=O)CNCc2ccccc2)c2cc(Cl)c3cccnc3c2O)cc1 (stereo not drawn) [Example 60, N^2-benzyl-N^1-[(5-chloro-8-hydroxyquinolin-7-yl)(4-methylphenyl)methyl]glycinamide]
0.559 µM |  | CN(CC(=O)NC(c1cccc([N+](=O)[O-])c1)c1cc(Cl)c2cccnc2c1O)c1ccccc1 (stereo not drawn) [Example 62, N^1-[(5-chloro-8-hydroxyquinolin-7-yl)(3-nitrophenyl)methyl]-N^2-methyl-N^2-phenylglycinamide]
0.765 µM |  | O=C(CNCc1ccccc1)NC(c1cccc([N+](=O)[O-])c1)c1cc(Cl)c2cccnc2c1O (stereo not drawn) [Example 64, N^2-benzyl-N^1-[(5-chloro-8-hydroxyquinolin-7-yl)(3-nitrophenyl)methyl]glycinamide]
1.92 µM |  | O=C(COc1ccccc1)NC(c1cccnc1)c1cc(Cl)c2cccnc2c1O (stereo not drawn) [Example 69, N-[(5-chloro-8-hydroxyquinolin-7-yl)(pyridin-3-yl)methyl]-2-phenoxyacetamide]
 | 50% | O=C(COc1ccc(Oc2ccccc2)cc1)NC(c1ccccc1)c1cc(Cl)c2cccnc2c1O (stereo not drawn) [Example 85, N-[(5-chloro-8-hydoxyquinolin-7-yl)(phenyl)methyl]-2-(4-phenoxyphenoxy)acetamide]
5.54 µM |  | CN(C)c1ccc(C(NC(=O)COc2ccccc2)c2ccc3cccnc3c2O)cc1 (stereo not drawn) [Example 99, N-[[4-(dimethylamino)phenyl](8-hydroxyquinolin-7-yl)methyl]-2-phenoxyacetamide]
1.09 µM |  | O=C(COc1ccccc1)NC(c1ccc(F)cc1Cl)c1cc(Cl)c2cccnc2c1O (stereo not drawn) [N-[(2-chloro-4-fluorophenyl)(5-chloro-8-hydroxyquinolin-7-yl)methyl]-2-phenoxyacetamide]
1.94 µM |  | O=C(COc1ccccc1)NC(c1ccc(O)cc1Cl)c1cc(Cl)c2cccnc2c1O (stereo not drawn) [N-[(2-chloro-4-hydroxyphenyl)(5-chloro-8-hydroxyquinolin-7-yl)methyl]-2-phenoxyacetamide]
2.5 µM |  | O=C(COc1ccccc1)NC(c1ccccc1Cl)c1ccc2cccnc2c1O (stereo not drawn) [N-[(2-chlorophenyl)(8-hydroxyquinolin-7-yl)methyl]-2-phenoxyacetamide]
1.04 µM |  | O=C(COc1ccccc1)NC(c1ccc(F)c(Cl)c1)c1cc(Cl)c2cccnc2c1O (stereo not drawn) [N-[(3-chloro-4-fluorophenyl)(5-chloro-8-hydroxyquinolin-7-yl)methyl]-2-phenoxyacetamide]
2.77 µM |  | O=C(COc1ccccc1)NC(c1cccc(F)c1)c1ccc2cccnc2c1O (stereo not drawn) [N-[(3-fluorophenyl)(8-hydroxyquinolin-7-yl)methyl]-2-phenoxyacetamide]
3.38 µM |  | O=C(COc1ccccc1)NC(c1ccc(Cl)cc1)c1ccc2cccnc2c1O (stereo not drawn) [N-[(4-chlorophenyl)(8-hydroxyquinolin-7-yl)methyl]-2-phenoxyacetamide]
1 µM |  | Cc1ccccc1C(NC(=O)COc1ccccc1)c1cc(Br)c2cccnc2c1O (stereo not drawn) [N-[(5-bromo-8-hydroxyquinolin-7-yl)(2-methylphenyl)methyl]-2-phenoxyacetamide]
 | 57% | O=C(COc1ccccc1)NC(c1ccc(Cl)cc1Cl)c1cc(Cl)c2cccnc2c1O (stereo not drawn) [N-[(5-chloro-8-hydroxyquinolin-7-yl)(2,4-dichlorophenyl)methyl]-2-phenoxyacetamide]
 | 60% | Cc1ccc(C(NC(=O)COc2ccccc2)c2cc(Cl)c3cccnc3c2O)c(C)c1 (stereo not drawn) [N-[(5-chloro-8-hydroxyquinolin-7-yl)(2,4-dimethylphenyl)methyl]-2-phenoxyacetamide]

Reference: patent US20080269213A1, “8-Hydroxyquinoline compounds and methods thereof” (Wyeth, priority 2006, published 2008)
